Measured values published in patent publication US6992089B2, “Nitro and amino substituted topoisomerase agents” (Rutgers, The University of New Jersey, priority 2002, dated 2006).
Where two headings read alike, the source gives them in different places.

Experiments:
RPMI 8402 = assay: Test B: MTT-microtiter plate tetrazolinium cytotoxicity assay, RPMI 8402; type: cell-based; conditions: Homo sapiens, RPMI 8402, 96 h, read-out: Cytotoxicity IC50 RPMI 8402
Experimental: (§1) The cytotoxicity was determined using the MTT-microtiter plate tetrazolinium cytotoxicity assay (MTA—See Mosmann, T., J. Immunol. Methods 1983, 65, 55-63; Carmichael, J., et al., Cancer Res. 1987, 47, 936-942; and Denizot, F., et al., J. Immunol. Methods 1986, 89, 271-277). […] The cytotoxicity assay was performed using 96-well microtiter plates. Cells were grown in suspension at 37° C. in 5% CO2 and maintained by regular passage in RPMI medium supplemented with 10% heat-inactivated fetal bovine serum, L-glutamine (2 mM), penicillin (100 U/mL), and streptomycin (0.1 mg/mL). […] For determination of IC50, cells were exposed continuously for 4 days to varying concentrations of drug, and MTT assays were performed at the end of the fourth day. […] All assays were performed at least twice in 6 replicate wells.

P388 = assay: MTT cytotoxicity assay, P388; type: cell-based; conditions: Mus musculus, P388, 96 h, read-out: Cytotoxicity IC50 P388
Experimental: as §1

P388/CPT45 = assay: MTT cytotoxicity assay, P388/CPT45; type: cell-based; conditions: Mus musculus, P388CPT45, 96 h, read-out: Cytotoxicity IC50 P388/CPT45
Experimental: as §1

CPT-K5 = assay: Test B: MTT-microtiter plate tetrazolinium cytotoxicity assay, CPT-K5 (camptothecin-resistant variant); type: cell-based; conditions: Homo sapiens, CPT-K5, 96 h, read-out: Cytotoxicity IC50 CPT-K5
Experimental: as §1

human topoisomerase I = molecular target: T1, human topoisomerase I (Homo sapiens, UniProt P11387); assay: Test A: topoisomerase I-mediated DNA cleavage assay; type: biochemical; conditions: concentration relative to topotecan (=1) producing the same cleavage on plasmid DNA in presence of human TOP1
T1 construct: unnamed fusion partner (recombinant fusion protein, T7 expression system); made in house; host or cells: E. coli
T1 sequence (P11387 1-765): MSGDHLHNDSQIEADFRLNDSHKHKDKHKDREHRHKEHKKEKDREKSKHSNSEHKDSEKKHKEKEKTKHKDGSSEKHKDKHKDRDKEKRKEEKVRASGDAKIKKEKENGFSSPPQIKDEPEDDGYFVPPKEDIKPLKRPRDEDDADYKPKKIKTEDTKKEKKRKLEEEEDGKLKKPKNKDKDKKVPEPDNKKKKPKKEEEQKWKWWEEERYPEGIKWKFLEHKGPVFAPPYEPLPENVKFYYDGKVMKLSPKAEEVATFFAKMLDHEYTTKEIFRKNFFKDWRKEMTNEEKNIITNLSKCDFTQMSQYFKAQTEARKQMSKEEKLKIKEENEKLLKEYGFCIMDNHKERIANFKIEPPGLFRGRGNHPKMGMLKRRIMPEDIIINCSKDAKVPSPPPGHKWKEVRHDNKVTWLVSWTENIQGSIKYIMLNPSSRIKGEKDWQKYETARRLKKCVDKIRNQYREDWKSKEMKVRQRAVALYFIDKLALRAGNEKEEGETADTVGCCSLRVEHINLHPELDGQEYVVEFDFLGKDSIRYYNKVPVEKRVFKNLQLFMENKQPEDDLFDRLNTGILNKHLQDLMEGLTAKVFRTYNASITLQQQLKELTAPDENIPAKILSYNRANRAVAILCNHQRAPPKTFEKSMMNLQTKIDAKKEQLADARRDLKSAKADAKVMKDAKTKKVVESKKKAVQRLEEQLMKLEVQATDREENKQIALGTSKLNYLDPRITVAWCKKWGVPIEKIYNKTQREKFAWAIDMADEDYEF
Excerpt: Test A. Topoisomerase-Mediated DNA Cleavage Assays
Human topoisomerase I was expressed in E. Coli and isolated as a recombinant fusion protein using a T7 expression system as described by Gatto, B., et al., Cancer Res. 1996, 56, 2795-2800. Plasmid YepG was purified by the alkali lysis method followed by phenol deproteination and CsCl/ethidium isopycnic centrifugation method as described by Maniatis, T., et al., J. Molecular Cloning, a Laboratory Manual; Cold Spring Harbor Laboratory: Cold Spring Harbor, N.Y. 1982; pp 149-185. The end-labeling of the plasmid was accomplished by digestion with a restriction enzyme followed by end-filling with Klenow polymerase as previously described by Tewey, K. M., et al., Science 1984, 226, 466-468. The cleavage assays were performed as previously reported (see Gatto, B., et al., Cancer Res. 1996, 56, 2795-2800; and Wang, H., et al., Biochemistry 2001, 40; 3316-3323). The drug and the DNA in presence of topoisomerase I was incubated for 30 minutes at 37° C. The reactions were terminated by the addition of 5 μl of 5% SDS and 1 mg/ml […] with an additional 1 hour of incubation at 37° C. Samples were then alkali denatured by the addition of NaOH, EDTA, sucrose, and bromophenol blue to final concentrations of 75 mM, 2.5%, and 0.05 mg/ml, respectively, prior to loading onto a neutral agarose gel. After development of the gels, typically 24-hour exposure was used to obtain autoradiograms outlining the extent of DNA fragmentation.

| SMILES | IC50 (RPMI 8402; 4 days of continuous drug exposure, MTT) [nM] | IC50 (P388; 4 days of continuous drug exposure) [nM] | IC50 (P388/CPT45) [nM] | IC50 (RPMI 8402) [nM] | IC50 (P388) [nM] | IC50 (CPT-K5) [nM] | TOP1-mediated DNA Cleavage (REC, relative effective concentration) (human topoisomerase I) | melting point |
| --- | --- | --- | --- | --- | --- | --- | --- | --- |
| CC[C@@]1(O)C(=O)OCc2c1cc1n(c2=O)Cc2cc3ccccc3nc2-1 [CPT, Camptothecin, reference compound] | 5 | 9 | > 10000 |  |  |  |  |  |
| COc1cc2c(=O)n(CCN(C)C)c3c4cccc([N+](=O)[O-])c4ncc3c2cc1OC [Compound 3a, 8,9-Dimethoxy-1-nitro-5-[2-(N,N-dimethylamino)ethyl]-5H-dibenzo[c,h][1,6]naphthyridin-6-one] |  |  | 2100 | 220 | 190 | 3000 | 9 | 257 to 258 °C |
| COc1cc2c(=O)n(CCN(C)C)c3c4ccc([N+](=O)[O-])cc4ncc3c2cc1OC [Compound 3b, 8,9-Dimethoxy-2-nitro-5-[2-(N,N-dimethylamino)ethyl]-5H-dibenzo[c,h][1,6]naphthyridin-6-one] |  |  | 340 | 75 | 30 | 3350 | 6 | 214 to 217 °C |
| COc1cc2c(=O)n(CCN(C)C)c3c4cc([N+](=O)[O-])ccc4ncc3c2cc1OC [Compound 3c, 8,9-Dimethoxy-3-nitro-5-[2-(N,N-dimethylamino)ethyl]-5H-dibenzo[c,h][1,6]naphthyridin-6-one] |  |  | 200 | 18 | 40 | 800 | 2 | 232 to 234 °C |
| COc1cc2c(=O)n(CCN(C)C)c3c(cnc4cccc([N+](=O)[O-])c43)c2cc1OC [Compound 3d, 8,9-Dimethoxy-4-nitro-5-[2-(N,N-dimethylamino)ethyl]-5H-dibenzo[c,h][1,6]-naphthyridin-6-one] |  |  | 7000 | 5500 | 6000 | 11500 | >300 | 194 to 195 °C |
| COc1cc2c(=O)n(CCN(C)C)c3c4cccc(N)c4ncc3c2cc1OC [Compound 4a, 1-Amino-8,9-dimethoxy-5-[2-(N,N-dimethylamino)ethyl]-5H-dibenzo[c,h][1,6]naphthyridin-6-one] |  |  | 210 | 650 | 350 | 2000 | 100 | 226 to 229 °C |
| COc1cc2c(=O)n(CCN(C)C)c3c4ccc(N)cc4ncc3c2cc1OC [Compound 4b, 2-Amino-8,9-dimethoxy-5-[2-(N,N-dimethylamino)ethyl]-5H-dibenzo[c,h][1,6]naphthyridin-6-one] |  |  | 230 | 100 | 60 | 2100 | 12 | 208 to 210 °C |
| COc1cc2c(=O)n(CCN(C)C)c3c4cc(N)ccc4ncc3c2cc1OC [Compound 4c, 3-Amino-8,9-dimethoxy-5-[2-(N,N-dimethylamino)ethyl]-5H-dibenzo[c,h][1,6]naphthyridin-6-one] |  |  | 330 | 40 | 20 | 1350 | 6 | 213 to 215 °C |
| COc1cc2c(=O)n(CCN(C)C)c3c(cnc4cccc(N)c43)c2cc1OC [Compound 4d, 4-Amino-8,9-dimethoxy-5-[2-(N,N-dimethylamino)ethyl]-5H-dibenzo[c,h][1,6]-naphthyridin-6-one] |  |  | 3500 | 4000 | 3000 | 8000 | >300 | 239 to 241 °C |
| COc1cc2c(=O)n(CCN(C)C)c3c4ccccc4ncc3c2cc1OC [Compound 5, 8,9-Dimethoxy-5-[2-(N,N-dimethylamino)ethyl]-5H-dibenzo[c,h]1,6-naphthyridin-6-one, reference compound] |  |  | 300 | 100 | 70 | 1650 | 10 |  |
| COc1cc2c(=O)n(CCN(C)C)c3c4cc([N+](=O)[O-])ccc4nnc3c2cc1OC [Compound 12a, 11-(2-Dimethylaminoethyl)-2,3-dimethoxy-9-nitro-11H-5,6,11-triazachrysen-12-one] |  |  |  | 3 |  | 3300 |  | 262 to 264 °C (dec.) |
| COc1cc2c(=O)n(CCN(C)C)c3c4ccccc4nnc3c2cc1OC [Compound 12b, 11-(2-Dimethylaminoethyl)-2,3-dimethoxy-11H-5,6,11-triazachrysen-12-one, reference compound] |  |  |  | 18 |  | 1500 |  |  |
| CC[C@@]1(O)C(=O)OCc2c1cc1n(c2=O)Cc2cc3c(CN(C)C)c(O)ccc3nc2-1 [Topotecan, reference compound] |  |  | > 10000 |  | 35 | > 50000 | 1 |  |
| COc1cc([C@@H]2c3cc4c(cc3[C@@H](O[C@@H]3O[C@@H]5CO[C@@H](c6cccs6)O[C@H]5[C@H](O)[C@H]3O)[C@H]3COC(=O)[C@H]23)OCO4)cc(OC)c1O [VM-26, teniposide, reference compound] |  |  |  |  |  | 280 |  |  |
